Test results published in patent US10739330B2, “Carbopyronone compounds useful as diagnostic adjuvants” (LIFE TECHNOLOGIES CORPORATION, priority 2014, dated 2020).
Like-named read-outs stand apart in the source and are kept apart here.

Columns and labels:
[1] = tested on: lymphocyte layer of cells from whole blood; test: Cell tracing by dye dilution, flow cytometry (Compound 2 vs CELLTRACE Far Red DDAO); type: cell-based; conditions: 5 μM, 20 min 37° C.; stimulated 5 days with DYNABEADS Human T-Activator CD3/CD28; 633/635 nm excitation, 660/20 emission filter
Protocol: The whole blood sample (20 mL) was diluted in 20 mL of PBS and then centrifuged for 30 min after addition of FICOLL-PAQUE Plus (15 mL) (GE Healthcare). The lymphocyte layer of cells was suspended in 25 mL of PBS buffer and centrifuged for 5 min. The cells were counted on the COUNTESS Automated Counter and the concentration was adjusted to 10^6 cells/mL. 10 mL of cells was incubated with either Compound 2 (FIG. 1A) or CELLTRACE Far Red DDAO (FIG. 1B) (Thermo Fisher Scientific) (5 μM) for 20 min in a 37° C. water bath. After incubation the cells were treated with 40 mL of OPTMIZER T Cell Expansion (Thermo Fisher Scientific) for 5 min. The treatment with OPTMIZER T Cell Expansion was repeated one more time after centrifugation. Next, the stained cells were stimulated with 50 μL DYNABEADS Human T-Activator CD3/CD28 (Thermo Fisher Scientific) per 1 mL of cells for 5 days. The stimulated cells were then analyzed using an ATTUNE flow cytometer (Thermo Fisher Scientific) with 633/635 nm excitation and a 660/20 bandpass emission filter.

A549 cells = test: CYQUANT Direct cytotoxicity assay; conditions: 10 μM, 30 mins at 37° C.; assayed on days 1, 2 and 3
Protocol: A549 cells plated in a 96 well plate were labeled with [sequence] […] The LCIS was then aspirated from cells and complete media added for an overnight incubation. The following day (Day 1) cells were assayed for cytotoxicity using the CYQUANT Direct assay (Thermo Fisher Scientific).

PBMCs [2] = test: Cytotoxicity test in PBMCs, viability dye (SYTOX) and flow cytometry; conditions: after proliferation for 3 to 5 days
Text: (§1) To test for cytotoxicity, PBMCs were stained with CELLTRACE (Thermo Fisher Scientific) CFSE (positive control) or Compound 2. The cells were split into samples for culturing and one sample was stimulated with anti-hCD3 (clone UCHT1) and supplemented with recombinant hIL2. Dye loading was observed by fluorescent microscopy. After proliferation for 3 to 5 days, the samples were stained with the appropriate viability dye (e.g., SYTOX dye) and analyzed by flow cytometry (see Table 3).

PBMCs [3] = tested on: PBMCs
Text: as §1

**Q.** For `CN1CCCc2cc3c(cc21)C(C)(C)c1cc2c(cc1=C3c1ccccc1C(=O)[O-])CCC[N+]=2CCCCCC(=O)ON1C(=O)CCC1=O` [Compound 2, 2-(1-(6-((2,5-dioxopyrrolidin-1-yl)oxy)-6-oxohexyl)-11-metheyliumyl-13,13-dimethyl-1,2,3,4,8,9,10,13-octahydro-1114-benzo[1,2-g:5,4-g′]diquinolin-6-yl)benzoate], which “generations of cells traced” value [1] is on record?
**A.** seven

**Q.** What about the “cytotoxicity compared to DMSO alone” value (A549 cells) of the same compound?
**A.** no cytotoxicity

**Q.** And the “% Live Cells” value (PBMCs [2]; 2 μM dye)?
**A.** 53%

**Q.** And the “% Live Cells” value (PBMCs [2]; 5 μM dye)?
**A.** 55%

**Q.** And the “% Live Cells” value (PBMCs [2]; 10 μM dye)?
**A.** 64%

**Q.** “Carboxyfluorescein diacetate succinimidyl ester [CELLTRACE CFSE]” was tested. Which “% Live Cells” value (PBMCs [3]) did it give?
**A.** 52%
